According to patent US20160102052A1, “Use of Cysteamine in Treating Infections caused by Yeasts/Moulds” (priority 2014, published 2016):

Test system: Exophiala dermatitidis CA01
Experiment: Broth microdilution chequerboard analysis of Lynovex (NM001) in combination with clinical antifungals
Format: cell-based
Conditions: 35° C.; for MIC50: Exophiala dermatitidis, NM001 in isolation
Experimental: The aim of the experiment was to determine the effect of Lynovex (NM001) on the antifungal drug susceptibility of Exophiala dermatitidis CA01. Microtitre plates were prepared following CLSI recommendations for broth microdilution chequerboard method. These plates contained a serial doubling dilution of Lynovex (NM001) combined with serial doubling dilutions of antifungals drugs; Fluconazole, Itraconazole, Caspofungin and Amphotericin B. […] These were incubated at 35° C. and read at 72 h, 96 h, 120 h and 144 h on the BioTek plate reader. […] Three independent E. dermatitidis CA01 cultures were grown on PDA slope for 6 days at 35° C. • 7. Cultures were removed from incubator. 2 ml sterile 0.15M NaCl added to the overnight culture and cells harvested from the surface of the agar. Cells placed in fresh bijou tube. • 8. The cultures were allowed to rest for up to 10 minutes, allowing any hyphae to settle to the bottom. The top layer of conidia was removed into fresh bijou. Hyphae were discarded. • 9. […] This is continued to F12 where 100 μl is removed and discarded. • f. This dilution series was repeated in rows G-H for the remaining 2 cultures • g. Plate read at OD530 on BioTek • h. […] This preparation step occurs in two parts. First, Lynovex (NM001) and antifungals are serially diluted, down and across microtitre plates, respectively. Equal volumes of Lynovex and antifungal are then combined in a fresh microtitre plate, prior to inoculation. […] Stock solutions of Lynovex and antifungals were prepared at 4× desired concentrations. The plate layout at the end of this protocol is the final concentration in the plate following the combination of Lynovex and antifungals and the addition of the inocula. […] All other wells contain 150 μl sterile dH2O. • 9. Serial doubling dilutions are carried out from A to B whereby 150 μl is removed from A and placed into B and mixed well. Then take 150 μl B and place in C and mix well. This is repeated down to row G where the final 150 μl is discarded. […] The same procedure is repeated for the other 4 antifungals, carrying the dilutions across the plate i.e. […] At the final dilution in column 10, the final 150 μl is discarded. […] Inoculating Plates with E. dermatitidis CA01 • 6. Add 100 μl (total volume 200 μl) of the prepared E. dermatitidis CA01 culture to the all wells on the plate except wells H12. […] H12 will contain 100 μl water and 100 μl 2×RPMI-1640 alone, constituting an uninoculated control. • 8. The plate is read in the BioTek at OD530. • 9. Plates are then placed in a plastic box containing a Petri dish of water, sealed and incubated at 35° C. The presence of the water in the dish or on the tissue provides and environment of relatively high humidity. • 10. OD530 is then read at 72 h, 96 h, 120 h and 144 h and raw data processed using Microsoft Excel. • 11. Fractional Inhibitory Concentration (FIC) Index values are generated using MIC100 for 72 h data and MIC50 for later time points using the following formula: […]

- MIC50 (CA01, 72 h, GEOMEAN, Amphotericin B chequerboard, 72 h): 461 µg/mL
- MIC50 (CA01, 72 h, GEOMEAN, Caspofungin chequerboard, 72 h): 1250 µg/mL
- MIC50 (CA01, 72 h, GEOMEAN, Fluconazole chequerboard, 72 h): 1250 µg/mL
- MIC50 (CA01, 72 h, GEOMEAN, Itraconazole chequerboard, 72 h): 1250 µg/mL
- MIC50 (CA01, 72 h, MEAN, Amphotericin B chequerboard, 72 h): 667 µg/mL
- MIC50 (CA01, 72 h, MEAN, Caspofungin chequerboard, 72 h): 1460 µg/mL
- MIC50 (CA01, 72 h, MEAN, Fluconazole chequerboard, 72 h): 1250 µg/mL
- MIC50 (CA01, 72 h, MEAN, Itraconazole chequerboard, 72 h): 1510 µg/mL
- MIC50 (CA01, 72 h, Range, Amphotericin B chequerboard, 72 h): 125 to 1250 µg/mL
- MIC50 (CA01, 72 h, Range, Caspofungin chequerboard, 72 h): 625 to 2500 µg/mL
- MIC50 (CA01, 72 h, Range, Fluconazole chequerboard, 72 h): 1250 µg/mL
- MIC50 (CA01, 72 h, Range, Itraconazole chequerboard, 72 h): 312 to 2500 µg/mL
- MIC50 (CA01, 96 h, GEOMEAN, Amphotericin B chequerboard, 96 h): 625 µg/mL
- MIC50 (CA01, 96 h, GEOMEAN, Caspofungin chequerboard, 96 h): 1090 µg/mL
- MIC50 (CA01, 96 h, GEOMEAN, Fluconazole chequerboard, 96 h): 787 µg/mL
- MIC50 (CA01, 96 h, GEOMEAN, Itraconazole chequerboard, 96 h): 1130 µg/mL
- MIC50 (CA01, 96 h, MEAN, Amphotericin B chequerboard, 96 h): 885 µg/mL
- MIC50 (CA01, 96 h, MEAN, Caspofungin chequerboard, 96 h): 1530 µg/mL
- MIC50 (CA01, 96 h, MEAN, Fluconazole chequerboard, 96 h): 885 µg/mL
- MIC50 (CA01, 96 h, MEAN, Itraconazole chequerboard, 96 h): 1520 µg/mL
- MIC50 (CA01, 96 h, Range, Amphotericin B chequerboard, 96 h): 156 to 1250 µg/mL
- MIC50 (CA01, 96 h, Range, Caspofungin chequerboard, 96 h): 156 to 2500 µg/mL
- MIC50 (CA01, 96 h, Range, Fluconazole chequerboard, 96 h): 312 to 1250 µg/mL
- MIC50 (CA01, 96 h, Range, Itraconazole chequerboard, 96 h): 312 to 2500 µg/mL
- MIC50 (CA01, 120 h, GEOMEAN, Amphotericin B chequerboard, 120 h): 743 µg/mL
- MIC50 (CA01, 120 h, GEOMEAN, Caspofungin chequerboard, 120 h): 1440 µg/mL
- MIC50 (CA01, 120 h, GEOMEAN, Fluconazole chequerboard, 120 h): 1770 µg/mL
- MIC50 (CA01, 120 h, GEOMEAN, Itraconazole chequerboard, 120 h): 1250 µg/mL
- MIC50 (CA01, 120 h, MEAN, Amphotericin B chequerboard, 120 h): 977 µg/mL
- MIC50 (CA01, 120 h, MEAN, Caspofungin chequerboard, 120 h): 1750 µg/mL
- MIC50 (CA01, 120 h, MEAN, Fluconazole chequerboard, 120 h): 1880 µg/mL
- MIC50 (CA01, 120 h, MEAN, Itraconazole chequerboard, 120 h): 1500 µg/mL
- MIC50 (CA01, 120 h, Range, Amphotericin B chequerboard, 120 h): 156 to 1250 µg/mL
- MIC50 (CA01, 120 h, Range, Caspofungin chequerboard, 120 h): 625 to 2500 µg/mL
- MIC50 (CA01, 120 h, Range, Fluconazole chequerboard, 120 h): 1250 to 2500 µg/mL
- MIC50 (CA01, 120 h, Range, Itraconazole chequerboard, 120 h): 625 to 2500 µg/mL
- MIC50 (CA01, 144 h, GEOMEAN, Amphotericin B chequerboard, 144 h): 787 µg/mL
- MIC50 (CA01, 144 h, GEOMEAN, Caspofungin chequerboard, 144 h): 1580 µg/mL
- MIC50 (CA01, 144 h, GEOMEAN, Fluconazole chequerboard, 144 h): 1490 µg/mL
- MIC50 (CA01, 144 h, GEOMEAN, Itraconazole chequerboard, 144 h): 1770 µg/mL
- MIC50 (CA01, 144 h, MEAN, Amphotericin B chequerboard, 144 h): 1300 µg/mL
- MIC50 (CA01, 144 h, MEAN, Caspofungin chequerboard, 144 h): 1880 µg/mL
- MIC50 (CA01, 144 h, MEAN, Fluconazole chequerboard, 144 h): 1720 µg/mL
- MIC50 (CA01, 144 h, MEAN, Itraconazole chequerboard, 144 h): 2030 µg/mL
- MIC50 (CA01, 144 h, Range, Amphotericin B chequerboard, 144 h): 156 to 2500 µg/mL
- MIC50 (CA01, 144 h, Range, Caspofungin chequerboard, 144 h): 625 to 2500 µg/mL
- MIC50 (CA01, 144 h, Range, Fluconazole chequerboard, 144 h): 625 to 2500 µg/mL
- MIC50 (CA01, 144 h, Range, Itraconazole chequerboard, 144 h): 625 to 2500 µg/mL
- NM001 MIC100 in Combination (GEOMEAN, in combination with Amphotericin B, 72 h): 39 µg/mL
- NM001 MIC50 in Combination (GEOMEAN, in combination with Amphotericin B, 96 h): 55 µg/mL
- NM001 MIC50 in Combination (GEOMEAN, in combination with Amphotericin B, 120 h): 156 µg/mL
- NM001 MIC50 in Combination (GEOMEAN, in combination with Amphotericin B, 144 h): 442 µg/mL
- NM001 MIC100 in Combination (GEOMEAN, in combination with Caspofungin, 72 h): 78 µg/mL
- NM001 MIC50 in Combination (GEOMEAN, in combination with Caspofungin, 96 h): 90 µg/mL
- NM001 MIC50 in Combination (GEOMEAN, in combination with Caspofungin, 120 h): 118 µg/mL
- NM001 MIC50 in Combination (GEOMEAN, in combination with Caspofungin, 144 h): 394 µg/mL
- NM001 MIC100 in Combination (GEOMEAN, in combination with Fluconazole, 72 h): 312.5 µg/mL
- NM001 MIC50 in Combination (GEOMEAN, in combination with Fluconazole, 96 h): 139 µg/mL
- NM001 MIC50 in Combination (GEOMEAN, in combination with Fluconazole, 120 h): 263 µg/mL
- NM001 MIC50 in Combination (GEOMEAN, in combination with Fluconazole, 144 h): 263 µg/mL
- NM001 MIC100 in Combination (GEOMEAN, in combination with Itraconazole, 72 h): 179 µg/mL
- NM001 MIC50 in Combination (GEOMEAN, in combination with Itraconazole, 96 h): 78 µg/mL
- NM001 MIC50 in Combination (GEOMEAN, in combination with Itraconazole, 120 h): 136 µg/mL
- NM001 MIC50 in Combination (GEOMEAN, in combination with Itraconazole, 144 h): 197 µg/mL
- NM001 MIC100 in Combination (MEAN, in combination with Amphotericin B, 72 h): 39 µg/mL
- NM001 MIC50 in Combination (MEAN, in combination with Amphotericin B, 96 h): 59 µg/mL
- NM001 MIC50 in Combination (MEAN, in combination with Amphotericin B, 120 h): 221 µg/mL
- NM001 MIC50 in Combination (MEAN, in combination with Amphotericin B, 144 h): 469 µg/mL
- NM001 MIC100 in Combination (MEAN, in combination with Caspofungin, 72 h): 78 µg/mL
- NM001 MIC50 in Combination (MEAN, in combination with Caspofungin, 96 h): 102 µg/mL
- NM001 MIC50 in Combination (MEAN, in combination with Caspofungin, 120 h): 148 µg/mL
- NM001 MIC50 in Combination (MEAN, in combination with Caspofungin, 144 h): 417 µg/mL
- NM001 MIC100 in Combination (MEAN, in combination with Fluconazole, 72 h): 365 µg/mL
- NM001 MIC50 in Combination (MEAN, in combination with Fluconazole, 96 h): 176 µg/mL
- NM001 MIC50 in Combination (MEAN, in combination with Fluconazole, 120 h): 312.5 µg/mL
- NM001 MIC50 in Combination (MEAN, in combination with Fluconazole, 144 h): 400 µg/mL
- NM001 MIC100 in Combination (MEAN, in combination with Itraconazole, 72 h): 203 µg/mL
- NM001 MIC50 in Combination (MEAN, in combination with Itraconazole, 96 h): 89 µg/mL
- NM001 MIC50 in Combination (MEAN, in combination with Itraconazole, 120 h): 156.25 µg/mL
- NM001 MIC50 in Combination (MEAN, in combination with Itraconazole, 144 h): 208 µg/mL
- NM001 MIC100 in Combination (Range, in combination with Amphotericin B, 72 h): 39 µg/mL
- NM001 MIC50 in Combination (Range, in combination with Amphotericin B, 96 h): 39.0625 to 78.125 µg/mL
- NM001 MIC50 in Combination (Range, in combination with Amphotericin B, 120 h): 39.06 to 312.5 µg/mL
- NM001 MIC50 in Combination (Range, in combination with Amphotericin B, 144 h): 312.5 to 625 µg/mL
- NM001 MIC100 in Combination (Range, in combination with Caspofungin, 72 h): 78 µg/mL
- NM001 MIC50 in Combination (Range, in combination with Caspofungin, 96 h): 39.0625 to 156.25 µg/mL
- NM001 MIC50 in Combination (Range, in combination with Caspofungin, 120 h): 39.06 to 312.5 µg/mL
- NM001 MIC50 in Combination (Range, in combination with Caspofungin, 144 h): 312.5 to 625 µg/mL
- NM001 MIC100 in Combination (Range, in combination with Fluconazole, 72 h): 156 to 625 µg/mL
- NM001 MIC50 in Combination (Range, in combination with Fluconazole, 96 h): 39.06 to 156.25 µg/mL
- NM001 MIC50 in Combination (Range, in combination with Fluconazole, 120 h): 156.25 to 625 µg/mL
- NM001 MIC50 in Combination (Range, in combination with Fluconazole, 144 h): 39.0625 to 625 µg/mL
- NM001 MIC100 in Combination (Range, in combination with Itraconazole, 72 h): 78 to 312.5 µg/mL
- NM001 MIC50 in Combination (Range, in combination with Itraconazole, 96 h): 39.06 to 156.25 µg/mL
- NM001 MIC50 in Combination (Range, in combination with Itraconazole, 120 h): 78.13 to 312.5 µg/mL
- NM001 MIC50 in Combination (Range, in combination with Itraconazole, 144 h): 156.25 to 312.5 µg/mL
Structure (SMILES): NCCS [NM001, cysteamine]
